Measured values published in article PMC12214830, “The human RIF1-Long isoform interacts with BRCA1 to promote recombinational fork repair under DNA replication stress” (Nature Communications, 2025).

How the values were obtained:
[1] = system: tandem BRCT domains of MDC1; experiment: fluorescence polarisation, tandem BRCT domains of MDC1; type: binding; conditions: peptide 200 nM, 25 mM HEPES pH 7.5, 200 mM NaCl
Procedure: (§1) Recombinant BRCT2 domain proteins were expressed as N-terminally HIS-SUMO tagged constructs from a modified pET15b vector in Escherichia coli BL21(DE3) host strain (Novagen). Cell pellets were re-suspended in lysis buffer containing 50 mM HEPES pH 7.5, 200 mM NaCl, 0.5 mM TCEP and supplemented with 10 U DNASE Turbo (ThermoFisher), then disrupted by sonication and the resulting lysate clarified by centrifugation at 40,000 × g for 60 min at 4 °C. […]
(§2) For Fluorescence Polarisation experiments, a Superdex 75 16/60 size exclusion column (GE Healthcare) was used to purify the His6-SUMO-BRCT2 proteins to homogeneity in 25 mM HEPES pH 7.5, 200 mM NaCl, 1 mM EDTA, 0.25 mM TCEP, 0.02% (v/v) Tween-20.
(§3) Fluorescein-labelled peptides (Flu-RIF1pS2265 Flu-[…](pS)PKFKSSK, Flu-BRIP1pS990 Flu-[…](pS)PTFNKQT and Flu-H2AXpS140 Flu-[…](pS)QEY, where (pS) is phosphorylated Serine) (Peptide Protein Research Ltd, Bishops Waltham, UK) at a concentration of 200 nM, were incubated at room temperature with increasing concentrations of His6-SUMO-BRCT2 protein in 25 mM HEPES pH 7.5, 200 mM NaCl, 1 mM EDTA, 0.25 mM TCEP, 0.02% (v/v) Tween-20 in a black 96-well polypropylene plate (VWR, Lutterworth, UK). […] Fluorescence polarisation was measured in a CLARIOstar multimode microplate reader (BMG Labtech GmbH, Offenburg, Germany). […]

[2] = system: tandem BRCT domains of TOPBP1; experiment: fluorescence polarisation, tandem BRCT domains of TOPBP1; type: binding; conditions: peptide 200 nM, 25 mM HEPES pH 7.5, 200 mM NaCl
Procedure: as §1, §2, §3

[3] = system: tandem BRCT domains of 53BP1; experiment: fluorescence polarisation, tandem BRCT domains of 53BP1; type: binding; conditions: peptide 200 nM, 25 mM HEPES pH 7.5, 200 mM NaCl
Procedure: as §1, §2, §3

[4] = system: BRCA1-BRCT domain (His6-SUMO-BRCT2); experiment: fluorescence polarisation, tandem BRCT domains of BRCA1; type: binding, human
Procedure: Recombinant BRCT2 domain proteins were expressed as N-terminally HIS-SUMO tagged constructs from a modified pET15b vector in Escherichia coli BL21(DE3) host strain (Novagen). Cell pellets were re-suspended in lysis buffer containing 50 mM HEPES pH 7.5, 200 mM NaCl, 0.5 mM TCEP and supplemented with 10 U DNASE Turbo (ThermoFisher), then disrupted by sonication and the resulting lysate clarified by centrifugation at 40,000 × g for 60 min at 4 °C. The supernatant was applied to a 5 ml HiTrap TALON crude column (GE Healthcare, Little Chalfont, UK), washed first with buffer containing 50 mM HEPES pH 7.5, 1000 mM NaCl, 0.5 mM TCEP, followed by lysis buffer supplemented with 10 mM imidazole, with any retained protein then eluted by application of the same buffer supplemented with 250 mM imidazole. The eluted protein was concentrated before further purification by size exclusion chromatography.
as §2
Fluorescein-labelled peptides (Flu-RIF1pS2265 Flu-[…](pS)PKFKSSK, Flu-BRIP1pS990 Flu-[…](pS)PTFNKQT and Flu-H2AXpS140 Flu-[…](pS)QEY, where (pS) is phosphorylated Serine) (Peptide Protein Research Ltd, Bishops Waltham, UK) at a concentration of 200 nM, were incubated at room temperature with increasing concentrations of His6-SUMO-BRCT2 protein in 25 mM HEPES pH 7.5, 200 mM NaCl, 1 mM EDTA, 0.25 mM TCEP, 0.02% (v/v) Tween-20 in a black 96-well polypropylene plate (VWR, Lutterworth, UK). Incubation with Lambda phosphatase (NEB, Hitchin, UK) supplemented with 1 mM MnCl2 was used to remove the phosphorylation on the peptides. Fluorescence polarisation was measured in a CLARIOstar multimode microplate reader (BMG Labtech GmbH, Offenburg, Germany). Binding curves represent the mean of 4 independent experiments, with error bars of 1 standard deviation. […]

With “Flu-GYGFLSPGSR(pS)PKFKSSK [RIF1-L phosphoS^2265PKF peptide, fluorescein-labelled RIF1-L-derived phosphopeptide]” the “binding to tandem BRCT domains of MDC1” value [1] was “did not bind”, the “binding to tandem BRCT domains of TOPBP1” value [2] was “did not bind” and the “binding to tandem BRCT domains of 53BP1” value [3] was “did not bind”. For the same substance, the “binding to BRCA1-BRCT” value ([4]; fluorescein-labelled peptide 200 nM, 25 mM HEPES pH 7.5, 200 mM NaCl, room temperature, mean of 4 independent experiments) was “bound strongly”, the “interaction affinity relative to BRIP1 phospho-peptide” value ([4]; peptide 200 nM, 25 mM HEPES pH 7.5, 200 mM NaCl) was “comparable to that for a phospho-peptide from BRIP1” and the “binding to BRCA1-BRCT after λ phosphatase” value ([4]; peptide treated with Lambda phosphatase, 1 mM MnCl2) was “abolished binding”.
